Values belong to the compound of their own block, whether it stands above or below them. Activity calls are given as the source filed them.
What was measured:
[1] = target: DNA dC->dU-editing enzyme APOBEC-3A (Homo sapiens, UniProt P31941); assay: Dose Response confirmation of small molecule APOBEC3A DNA Deaminase Inhibitors via a fluorescence-based single-stranded DNA deaminase assay. [Related pubchem assays (depositor defined):AID493011, AID493024]; format: functional
[2] = target: DNA dC->dU-editing enzyme APOBEC-3G (Homo sapiens, UniProt Q9HC16); format: functional;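 note: Dose-response counterscreen measuring inhibition of APOBEC3G DNA deaminase activity, run while confirming APOBEC3A inhibitors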
[3] = target: T1, Cannabinoid receptor 2 (Homo sapiens, UniProt P34972); assay: SAR analysis of antagonists of the Cannabinoid Receptor 2 using an Image-Based Assay - Set 2. [Related pubchem assays (depositor defined):AID1961, AID1965]; format: functional
[4] = target: G-protein coupled receptor 55 (Homo sapiens, UniProt Q9Y2T6); assay: SAR analysis of selective Agonists of GPR55 using an Image-Based Assay - Set 2. [Related pubchem assays (depositor defined):AID1961, AID1965]; format: functional
[5] = target: T1, Cannabinoid receptor 2; assay: SAR analysis of agonists of the Cannabinoid Receptor 2 using an Image-Based Assay - Set 2. [Related pubchem assays (depositor defined):AID1961, AID1965]; format: functional
[6] = target: T2, G-protein coupled receptor 35 (Homo sapiens, UniProt Q9HC97); assay: SAR analysis of Agonists of the GPR35 Receptor using an Image-Based Assay - Set 3. [Related pubchem assays (depositor defined):AID1961, AID1965]; format: functional
[7] = target: T3, Cannabinoid receptor 1 (Homo sapiens, UniProt P21554); assay: SAR analysis of antagonists of the Cannabinoid Receptor 1 using an Image-Based Assay - Set 3. [Related pubchem assays (depositor defined):AID1961, AID1965]; format: functional
[8] = target: T3, Cannabinoid receptor 1; assay: SAR analysis of agonists of the Cannabinoid Receptor 1 using an Image-Based Assay - Set 3. [Related pubchem assays (depositor defined):AID1961, AID1965]; format: functional
[9] = target: T2, G-protein coupled receptor 35; assay: SAR analysis of Antagonists of the GPR35 Receptor using an Image-Based Assay - Set 4. [Related pubchem assays (depositor defined):[…]]; format: functional
[10] = target: 1-acylglycerol-3-phosphate O-acyltransferase ABHD5/Perilipin-5 (Homo sapiens, UniProt Q00G26+Q8WTS1); assay: Luminescence-based biochemical high throughput dose response assay for inhibitors of the interaction of the lipase co-activator protein, abhydrolase domain containing 5 (ABHD5) with perilipin-5 (MLDP; PLIN5) (2K validation set). [Related pubchem assays (depositor defined):AID493035, AID493241]
[11] = target: Perilipin-1/ABHD5 (Homo sapiens, UniProt O60240+Q8WTS1); assay: Luminescence-based biochemical high throughput dose response assay for inhibitors of the interaction of the lipase co-activator protein, abhydrolase domain containing 5 (ABHD5) with perilipin-1 (PLIN1) (2K validation set). [Related pubchem assays (depositor defined):AID493027, AID493057]
[12] = target: Cytochrome P450 2C9 (Homo sapiens, UniProt P11712)
[13] = target: Phosphomannomutase 2 (Homo sapiens, UniProt O15305); assay: Counter screen SAR assay for PMM2 inhibitors via a fluorescence intensity assay. [Related pubchem assays (depositor defined):AID1545, AID1574]
Phosphomannomutase 2, sequence (O15305 whole entry): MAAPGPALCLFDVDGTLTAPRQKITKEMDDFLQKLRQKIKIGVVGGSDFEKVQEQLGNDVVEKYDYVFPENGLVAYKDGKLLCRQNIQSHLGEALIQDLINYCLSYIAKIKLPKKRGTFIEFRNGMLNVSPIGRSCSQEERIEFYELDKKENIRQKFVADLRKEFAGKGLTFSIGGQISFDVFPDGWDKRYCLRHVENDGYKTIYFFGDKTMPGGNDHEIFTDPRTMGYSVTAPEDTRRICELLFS

T3 sequence (P21554 whole entry): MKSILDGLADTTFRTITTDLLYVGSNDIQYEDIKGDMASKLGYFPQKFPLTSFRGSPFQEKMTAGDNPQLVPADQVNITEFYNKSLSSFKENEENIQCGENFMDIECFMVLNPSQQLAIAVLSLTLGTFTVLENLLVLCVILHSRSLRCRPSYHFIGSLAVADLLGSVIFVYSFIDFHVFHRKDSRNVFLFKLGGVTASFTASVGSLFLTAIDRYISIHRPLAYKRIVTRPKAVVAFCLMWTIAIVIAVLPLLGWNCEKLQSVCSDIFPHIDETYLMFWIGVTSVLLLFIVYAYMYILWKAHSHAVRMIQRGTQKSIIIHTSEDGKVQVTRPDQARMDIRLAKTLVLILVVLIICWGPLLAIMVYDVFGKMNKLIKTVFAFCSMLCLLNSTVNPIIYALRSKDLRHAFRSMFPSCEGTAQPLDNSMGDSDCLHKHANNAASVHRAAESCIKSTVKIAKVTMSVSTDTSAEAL
T1 sequence (P34972 whole entry): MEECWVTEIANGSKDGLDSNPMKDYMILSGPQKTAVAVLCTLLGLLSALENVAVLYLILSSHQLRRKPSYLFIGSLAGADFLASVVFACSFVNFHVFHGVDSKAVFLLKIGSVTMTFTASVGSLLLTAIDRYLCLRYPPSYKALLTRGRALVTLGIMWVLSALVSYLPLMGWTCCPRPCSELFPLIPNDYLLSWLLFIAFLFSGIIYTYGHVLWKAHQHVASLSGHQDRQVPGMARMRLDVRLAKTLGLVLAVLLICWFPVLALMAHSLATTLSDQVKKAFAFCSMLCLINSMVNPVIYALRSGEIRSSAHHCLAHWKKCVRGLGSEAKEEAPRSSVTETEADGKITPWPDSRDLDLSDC
T2 sequence (Q9HC97 whole entry): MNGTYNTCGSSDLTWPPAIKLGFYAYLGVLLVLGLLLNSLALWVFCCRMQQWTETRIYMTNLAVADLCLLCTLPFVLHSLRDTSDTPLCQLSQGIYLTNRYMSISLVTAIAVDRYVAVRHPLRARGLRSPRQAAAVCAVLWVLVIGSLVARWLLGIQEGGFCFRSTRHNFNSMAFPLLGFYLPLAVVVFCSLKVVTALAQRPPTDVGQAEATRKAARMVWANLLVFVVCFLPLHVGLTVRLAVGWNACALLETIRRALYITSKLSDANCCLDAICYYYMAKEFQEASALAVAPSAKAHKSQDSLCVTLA
DNA dC->dU-editing enzyme APOBEC-3A, sequence (P31941 whole entry): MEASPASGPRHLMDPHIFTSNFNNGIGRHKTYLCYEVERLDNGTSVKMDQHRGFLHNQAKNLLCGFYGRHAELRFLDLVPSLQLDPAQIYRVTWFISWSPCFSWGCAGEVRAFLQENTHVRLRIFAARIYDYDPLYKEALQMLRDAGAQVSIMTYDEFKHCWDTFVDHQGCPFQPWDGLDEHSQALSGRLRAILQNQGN
1-acylglycerol-3-phosphate O-acyltransferase ABHD5/Perilipin-5, sequence (Q00G26 whole entry, the tested form may be a part): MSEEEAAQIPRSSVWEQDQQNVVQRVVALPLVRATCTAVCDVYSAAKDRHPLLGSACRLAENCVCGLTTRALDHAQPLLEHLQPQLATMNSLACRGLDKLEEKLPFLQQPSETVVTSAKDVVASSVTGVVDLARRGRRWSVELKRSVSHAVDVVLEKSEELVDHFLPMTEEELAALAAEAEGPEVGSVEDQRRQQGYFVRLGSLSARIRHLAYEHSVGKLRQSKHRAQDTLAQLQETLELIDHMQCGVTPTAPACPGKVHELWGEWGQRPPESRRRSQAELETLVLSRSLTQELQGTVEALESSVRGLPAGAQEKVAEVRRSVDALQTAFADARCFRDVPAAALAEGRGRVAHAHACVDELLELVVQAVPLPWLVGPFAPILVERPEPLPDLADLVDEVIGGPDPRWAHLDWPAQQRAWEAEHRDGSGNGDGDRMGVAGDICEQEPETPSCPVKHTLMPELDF
1-acylglycerol-3-phosphate O-acyltransferase ABHD5/Perilipin-5, sequence (Q8WTS1 whole entry, the tested form may be a part): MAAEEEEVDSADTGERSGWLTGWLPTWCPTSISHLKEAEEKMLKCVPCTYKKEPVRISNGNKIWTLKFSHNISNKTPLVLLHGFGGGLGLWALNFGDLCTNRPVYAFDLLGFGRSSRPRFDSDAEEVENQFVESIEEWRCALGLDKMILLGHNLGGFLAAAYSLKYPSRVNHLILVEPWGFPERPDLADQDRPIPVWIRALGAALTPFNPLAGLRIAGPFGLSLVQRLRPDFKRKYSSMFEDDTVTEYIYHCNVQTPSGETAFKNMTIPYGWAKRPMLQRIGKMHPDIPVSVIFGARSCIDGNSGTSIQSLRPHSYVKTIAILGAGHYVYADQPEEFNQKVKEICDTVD
G-protein coupled receptor 55, sequence (Q9Y2T6 whole entry): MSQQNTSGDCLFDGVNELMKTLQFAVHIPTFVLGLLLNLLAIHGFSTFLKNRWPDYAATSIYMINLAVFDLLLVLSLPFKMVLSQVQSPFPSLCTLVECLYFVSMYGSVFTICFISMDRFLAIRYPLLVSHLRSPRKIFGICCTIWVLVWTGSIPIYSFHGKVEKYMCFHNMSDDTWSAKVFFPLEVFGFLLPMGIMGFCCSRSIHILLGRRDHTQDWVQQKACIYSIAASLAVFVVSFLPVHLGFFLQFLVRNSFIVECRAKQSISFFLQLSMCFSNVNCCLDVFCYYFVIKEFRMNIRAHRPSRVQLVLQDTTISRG
Cytochrome P450 2C9, sequence (P11712 whole entry): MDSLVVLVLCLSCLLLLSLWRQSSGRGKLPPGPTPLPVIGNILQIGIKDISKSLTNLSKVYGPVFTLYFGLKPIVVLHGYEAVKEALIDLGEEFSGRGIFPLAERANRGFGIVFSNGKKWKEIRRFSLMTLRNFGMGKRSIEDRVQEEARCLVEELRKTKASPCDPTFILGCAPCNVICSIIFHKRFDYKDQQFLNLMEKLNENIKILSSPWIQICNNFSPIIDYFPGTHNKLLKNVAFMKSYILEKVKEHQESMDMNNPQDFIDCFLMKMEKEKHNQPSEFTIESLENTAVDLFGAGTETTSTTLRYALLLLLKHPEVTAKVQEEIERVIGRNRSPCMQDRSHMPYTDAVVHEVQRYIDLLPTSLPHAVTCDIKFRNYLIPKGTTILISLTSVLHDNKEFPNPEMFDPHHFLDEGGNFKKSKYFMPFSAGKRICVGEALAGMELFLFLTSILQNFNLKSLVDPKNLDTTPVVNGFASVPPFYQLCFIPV
Perilipin-1/ABHD5, sequence (Q8WTS1 whole entry, the tested form may be a part): as the sequence (Q8WTS1 whole entry, the tested form may be a part) above
Perilipin-1/ABHD5, sequence (O60240 whole entry, the tested form may be a part): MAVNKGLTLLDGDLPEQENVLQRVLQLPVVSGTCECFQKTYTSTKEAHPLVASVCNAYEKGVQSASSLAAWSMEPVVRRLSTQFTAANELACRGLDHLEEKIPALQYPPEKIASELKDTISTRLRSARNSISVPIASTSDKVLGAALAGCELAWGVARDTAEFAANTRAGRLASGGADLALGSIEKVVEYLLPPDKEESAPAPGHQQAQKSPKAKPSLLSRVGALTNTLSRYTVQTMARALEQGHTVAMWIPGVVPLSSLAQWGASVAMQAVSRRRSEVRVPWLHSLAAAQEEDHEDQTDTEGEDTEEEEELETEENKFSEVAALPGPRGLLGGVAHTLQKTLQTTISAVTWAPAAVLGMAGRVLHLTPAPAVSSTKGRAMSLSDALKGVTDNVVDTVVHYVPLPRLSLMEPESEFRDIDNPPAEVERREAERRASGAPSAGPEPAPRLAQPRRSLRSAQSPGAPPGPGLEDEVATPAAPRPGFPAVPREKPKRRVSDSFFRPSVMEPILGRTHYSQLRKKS
DNA dC->dU-editing enzyme APOBEC-3G, sequence (Q9HC16 whole entry): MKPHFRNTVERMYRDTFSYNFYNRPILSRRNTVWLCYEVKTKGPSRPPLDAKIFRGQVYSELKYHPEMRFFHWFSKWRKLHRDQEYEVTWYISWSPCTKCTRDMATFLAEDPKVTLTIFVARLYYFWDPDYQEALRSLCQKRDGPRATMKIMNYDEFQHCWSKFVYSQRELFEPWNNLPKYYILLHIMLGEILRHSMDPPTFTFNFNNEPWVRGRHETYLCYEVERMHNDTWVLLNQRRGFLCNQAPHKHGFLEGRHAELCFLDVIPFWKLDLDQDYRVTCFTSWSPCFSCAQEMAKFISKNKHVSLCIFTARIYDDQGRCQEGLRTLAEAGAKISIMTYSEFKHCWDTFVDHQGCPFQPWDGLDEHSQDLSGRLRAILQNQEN

Compound: CCc1ccc(OCC(=O)N/N=C\c2ccco2)c([N+](=O)[O-])c1
IC50 [1]: 18.6 µM (active)
IC50 [2]: 39.8 µM (active)

IC50 [3]: > 32 µM (inactive)
EC50 [4]: > 32 µM (inactive)
EC50 [5]: > 32 µM (inactive)
EC50 [6]: > 32 µM (inactive)
IC50 [7]: > 32 µM (inactive)
EC50 [8]: > 32 µM (inactive)
IC50 [9]: > 32 µM (inactive)
Compound: CCOc1ccccc1N1CCN(C(=O)c2cc(S(=O)(=O)N(C)C)ccc2N2CCCC2)CC1

Compound: CC1=CC(=O)c2ccccc2C1=O [MENADIONE]
IC50 [10]: 9.47 µM (active)
IC50 [11]: 7.9 µM (active)
AC50 [12]: 6.31 µM (inconclusive)

IC50 [13]: > 100 µM (inactive)
Compound: CN(C)c1cccc(/N=c2\ssnc2Cl)c1
